Laboratory results reported in ChEMBL document CHEMBL4414609, “High-Affinity Alkynyl Bisubstrate Inhibitors of Nicotinamide N-Methyltransferase (NNMT)” (J Med Chem, 2019).

How the values were obtained:
[1] = biological target: INMT (indolethylamine N-methyltransferase) (Homo sapiens, UniProt O95050); experiment: Inhibition of wild type human INMT expressed in Escherichia coli at 10 uM using tryptamine as substrate in presence of SAM incubated for 30 mins by MTase-Glo assay relative to control; details: probe tryptamine
INMT (indolethylamine N-methyltransferase), sequence (O95050 whole entry): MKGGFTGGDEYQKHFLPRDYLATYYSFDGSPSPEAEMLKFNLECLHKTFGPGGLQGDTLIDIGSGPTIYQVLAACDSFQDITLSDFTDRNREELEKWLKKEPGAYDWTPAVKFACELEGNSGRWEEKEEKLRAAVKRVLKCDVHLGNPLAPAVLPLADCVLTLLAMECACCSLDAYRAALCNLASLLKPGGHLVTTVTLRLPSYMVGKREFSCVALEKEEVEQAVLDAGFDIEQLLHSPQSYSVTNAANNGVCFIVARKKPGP

[2] = biological target: T1, GAMT (guanidinoacetate N-methyltransferase) (Homo sapiens, UniProt Q14353); experiment: Inhibition of human GAMT expressed in Escherichia coli at 10 uM assessed as reduction in SAH level using guanidineacetic acid as substrate in presence of SAM incubated for 30 mins by LC-MS/MS analysis relative to control; details: recombinant human GAMT expressed in Escherichia coli, probe guanidineacetic acid
[3] = biological target: T2, COMT (catechol O-methyltransferase) (Homo sapiens, UniProt P21964); experiment: Inhibition of human COMT expressed in Escherichia coli at 1 uM assessed as reduction in SAH level using pyrocatechol as substrate in presence of SAM incubated for 15 mins by LC-MS/MS analysis relative to control; details: recombinant human COMT expressed in Escherichia coli, probe pyrocatechol
T2 sequence (P21964 whole entry): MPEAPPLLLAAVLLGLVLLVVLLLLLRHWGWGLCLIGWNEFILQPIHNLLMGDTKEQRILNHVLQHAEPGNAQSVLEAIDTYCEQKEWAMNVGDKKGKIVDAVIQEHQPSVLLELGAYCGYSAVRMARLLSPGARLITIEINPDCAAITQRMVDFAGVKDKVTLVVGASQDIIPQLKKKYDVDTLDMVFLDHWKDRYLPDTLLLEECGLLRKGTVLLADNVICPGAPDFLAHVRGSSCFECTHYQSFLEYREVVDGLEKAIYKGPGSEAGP

[4] = biological target: T1, GAMT (guanidinoacetate N-methyltransferase); experiment: Inhibition of human GAMT expressed in Escherichia coli at 1 uM assessed as reduction in SAH level using guanidineacetic acid as substrate in presence of SAM incubated for 30 mins by LC-MS/MS analysis relative to control; details: recombinant human GAMT expressed in Escherichia coli, probe guanidineacetic acid
[5] = biological target: HNMT (histamine N-methyltransferase) (Homo sapiens, UniProt P50135); experiment: Inhibition of human HNMT expressed in Escherichia coli at 1 uM assessed as reduction in SAH level using histamine as substrate in presence of SAM incubated for 15 mins by LC-MS/MS analysis relative to control; details: recombinant human HNMT expressed in Escherichia coli, probe histamine
HNMT (histamine N-methyltransferase), sequence (P50135 whole entry): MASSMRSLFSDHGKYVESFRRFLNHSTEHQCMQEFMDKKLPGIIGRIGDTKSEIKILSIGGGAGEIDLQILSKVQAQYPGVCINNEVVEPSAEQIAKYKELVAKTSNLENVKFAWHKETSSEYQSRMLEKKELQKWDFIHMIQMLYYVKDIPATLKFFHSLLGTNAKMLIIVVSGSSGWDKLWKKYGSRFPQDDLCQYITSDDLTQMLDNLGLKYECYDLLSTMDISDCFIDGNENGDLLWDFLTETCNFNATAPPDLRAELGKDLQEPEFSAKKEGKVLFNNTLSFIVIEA

[6] = biological target: DNA (cytosine-5)-methyltransferase 3A (Homo sapiens, UniProt Q9Y6K1); experiment: Inhibition of human DNMT3a expressed in insect sf9 cells assessed as reduction in methylated poly(dI-dC)-Poly(dI-dC) level using poly(dI-dC)-poly(dI-dC) as substrate in presence of [3H] SAM incubated for 10 mins by scintillation counting
DNA (cytosine-5)-methyltransferase 3A, sequence (Q9Y6K1 whole entry, looked up): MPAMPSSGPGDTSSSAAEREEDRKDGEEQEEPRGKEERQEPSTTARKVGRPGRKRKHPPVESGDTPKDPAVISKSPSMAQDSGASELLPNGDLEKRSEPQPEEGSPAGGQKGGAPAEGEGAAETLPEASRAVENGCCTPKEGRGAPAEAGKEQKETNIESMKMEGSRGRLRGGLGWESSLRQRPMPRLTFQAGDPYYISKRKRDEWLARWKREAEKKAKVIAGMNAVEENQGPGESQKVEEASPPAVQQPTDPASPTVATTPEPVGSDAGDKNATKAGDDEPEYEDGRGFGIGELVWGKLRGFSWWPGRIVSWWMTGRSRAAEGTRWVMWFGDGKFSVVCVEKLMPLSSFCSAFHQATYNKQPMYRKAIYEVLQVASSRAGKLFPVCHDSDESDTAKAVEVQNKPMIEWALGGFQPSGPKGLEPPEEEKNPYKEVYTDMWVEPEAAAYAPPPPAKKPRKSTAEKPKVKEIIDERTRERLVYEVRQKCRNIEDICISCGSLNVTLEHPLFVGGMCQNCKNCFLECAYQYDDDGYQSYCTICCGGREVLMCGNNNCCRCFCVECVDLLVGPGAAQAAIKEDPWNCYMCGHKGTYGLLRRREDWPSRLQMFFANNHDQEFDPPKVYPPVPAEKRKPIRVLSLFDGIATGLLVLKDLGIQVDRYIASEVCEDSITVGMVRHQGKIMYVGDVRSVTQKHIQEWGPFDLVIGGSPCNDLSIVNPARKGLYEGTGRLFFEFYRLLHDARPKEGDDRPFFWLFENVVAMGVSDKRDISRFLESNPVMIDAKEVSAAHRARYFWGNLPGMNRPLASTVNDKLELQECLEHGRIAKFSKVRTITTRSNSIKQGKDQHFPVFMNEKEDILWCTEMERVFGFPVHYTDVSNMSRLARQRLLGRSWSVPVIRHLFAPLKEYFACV

[7] = biological target: Protein arginine N-methyltransferase 1 (Homo sapiens, UniProt Q99873); experiment: Inhibition of human PRMT1 expressed in Escherichia coli assessed as reduction in methylated histone H4 full length level using histone H4 full length as substrate in presence of [3H] SAM incubated for 20 mins by scintillation counting
Protein arginine N-methyltransferase 1, sequence (Q99873 whole entry): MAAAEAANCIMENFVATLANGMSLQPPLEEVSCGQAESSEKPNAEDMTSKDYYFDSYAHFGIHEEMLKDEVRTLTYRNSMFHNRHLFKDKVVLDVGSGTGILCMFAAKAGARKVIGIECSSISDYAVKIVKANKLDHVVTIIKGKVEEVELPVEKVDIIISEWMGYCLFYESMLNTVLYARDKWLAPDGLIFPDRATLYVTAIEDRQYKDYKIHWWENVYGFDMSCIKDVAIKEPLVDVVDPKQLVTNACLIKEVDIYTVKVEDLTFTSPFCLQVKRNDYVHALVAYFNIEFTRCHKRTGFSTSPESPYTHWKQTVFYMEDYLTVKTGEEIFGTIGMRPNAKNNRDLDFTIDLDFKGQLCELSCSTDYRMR

[8] = biological target: T3, Histone-lysine N-methyltransferase EHMT1 (Homo sapiens, UniProt Q9H9B1); experiment: Inhibition of human EHMT1 expressed in Escherichia coli assessed as reduction in methylated histone H3 full length using histone H3 full length as substrate in presence of [3H] SAM incubated for 120 mins by scintillation counting
T3 sequence (Q9H9B1 whole entry): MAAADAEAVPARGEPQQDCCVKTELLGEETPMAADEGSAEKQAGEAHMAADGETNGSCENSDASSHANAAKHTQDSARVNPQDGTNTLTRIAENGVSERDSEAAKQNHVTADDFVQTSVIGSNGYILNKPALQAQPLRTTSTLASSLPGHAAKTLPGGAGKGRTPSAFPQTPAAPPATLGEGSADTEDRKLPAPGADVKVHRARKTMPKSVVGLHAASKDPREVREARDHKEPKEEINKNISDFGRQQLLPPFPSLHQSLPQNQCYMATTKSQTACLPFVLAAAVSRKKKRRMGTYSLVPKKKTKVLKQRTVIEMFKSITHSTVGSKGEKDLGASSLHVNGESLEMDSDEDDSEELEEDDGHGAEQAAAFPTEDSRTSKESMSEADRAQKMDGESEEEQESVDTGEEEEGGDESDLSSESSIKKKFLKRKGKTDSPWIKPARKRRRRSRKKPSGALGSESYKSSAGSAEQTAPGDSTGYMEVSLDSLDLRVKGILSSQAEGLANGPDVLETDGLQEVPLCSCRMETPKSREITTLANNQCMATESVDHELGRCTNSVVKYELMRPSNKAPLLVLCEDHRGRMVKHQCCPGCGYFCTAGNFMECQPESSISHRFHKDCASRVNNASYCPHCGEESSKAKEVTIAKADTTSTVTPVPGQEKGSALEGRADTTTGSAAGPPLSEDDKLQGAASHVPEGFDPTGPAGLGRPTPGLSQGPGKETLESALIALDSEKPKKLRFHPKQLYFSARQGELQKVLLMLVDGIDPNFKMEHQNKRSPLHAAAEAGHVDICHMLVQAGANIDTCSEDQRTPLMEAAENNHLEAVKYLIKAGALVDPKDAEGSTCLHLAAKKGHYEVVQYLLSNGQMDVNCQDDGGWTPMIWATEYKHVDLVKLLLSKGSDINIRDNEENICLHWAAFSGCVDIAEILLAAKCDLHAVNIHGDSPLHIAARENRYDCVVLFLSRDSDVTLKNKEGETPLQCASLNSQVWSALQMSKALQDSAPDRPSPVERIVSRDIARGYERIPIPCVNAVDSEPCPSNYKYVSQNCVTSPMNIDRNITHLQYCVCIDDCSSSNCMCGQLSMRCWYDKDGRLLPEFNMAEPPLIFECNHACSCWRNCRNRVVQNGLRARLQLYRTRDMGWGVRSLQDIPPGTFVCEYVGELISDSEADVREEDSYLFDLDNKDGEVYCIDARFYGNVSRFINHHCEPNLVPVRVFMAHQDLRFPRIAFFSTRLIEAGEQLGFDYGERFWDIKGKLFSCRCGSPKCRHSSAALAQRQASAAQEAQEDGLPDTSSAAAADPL

[9] = biological target: Histone-lysine N-methyltransferase SETDB1 (Homo sapiens, UniProt Q15047); experiment: Inhibition of human SETDB1 expressed in sf9 insect cells assessed as reduction in methylated histone H3 full length level using histone H3 full length as substrate in presence of [3H] SAM incubated for 30 mins by scintillation counting

Work on `NC(=O)c1cccc(C#C[C@@H](CC[C@H](N)C(=O)O)C[C@H]2O[C@@H](n3cnc4c(N)ncnc43)[C@H](O)[C@@H]2O)c1` yielded an inhibition at 0.5 h, 10 µM [1] of 53%, an inhibition at 0.5 h, 10 µM [2] of 26% and an inhibition at 0.25 h, 1 µM [3] of 0%. The inhibition at 0.5 h, 1 µM [4] was 0%, the inhibition at 0.25 h, 1 µM [5] was 6% and the IC50 [6] was 7.6 µM. The IC50 [7] was greater than 10 µM, the IC50 [8] was greater than 10 µM and the IC50 [9] was greater than 10 µM.
